Here are results for 37 compounds from patent US12612412B2, “Antiviral heterocyclic compounds” (Enanta Pharmaceuticals, Inc., priority 2021, dated 2026).

The assay deals with genotype A, "Long" strain RSV. The assay is described as follows: RSV-A assay (CPE protection in Hep-2 cells, ATPlite readout). Particulars: human respiratory syncytial virus, RSV-A Long strain, MOI 0.1, CPE protection, read-out: Human RSV-A (“Long”) EC50. Type of assay: cell-based, Human respiratory syncytial virus (HRSV). The procedure, abridged:
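Hep-2 cells (8,000/well) were treated with 2-fold serial compound dilutions in duplicate and infected with RSV at MOI 0.1. After 5 days, protection from cytopathic effect was measured as cell viability by ATPlite luminescence, and EC50 values were derived.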
For orientation: Cellular ATP, detected with luciferase, serves as a proxy for viable cell number.

For orientation: EC50 means the concentration at which the effect is half-maximal.

For the compound `COc1cc(C(=O)NC[C@](O)(c2cc3c(c(-c4cc(Cl)c(F)cc4F)n2)OC[C@]3(C)C(N)=O)C2(F)CC2)cc2cn(C(F)F)nc12` [Example 1112], the EC50 was under 200 nM.

Take `COc1cc(C(=O)NC[C@](O)(c2cc3c(c(-c4cc(Cl)c(F)cc4F)n2)OC[C@]3(C)C(N)=O)C2(F)CC2)cc2cc(Br)cnc12` [Example 1113]: the EC50 is under 200 nM.

Regarding `COc1cc(C(=O)NC[C@](O)(c2cc3c(c(-c4ccc(F)c(Cl)c4F)n2)OC[C@]3(C)C(N)=O)C2(F)CC2)cc2cc(Br)cnc12` [Example 1114], the half-maximal effective concentration (EC50) is under 200 nM.

With `COc1cc(C(=O)NC[C@](O)(c2cc3c(c(-c4ccc(F)cc4)n2)OC[C@]3(C)C(N)=O)C(F)(F)F)cc2cc(Br)c(C)nc12` [Example 1115], the concentration for a half-maximal effect (EC50) was under 200 nM.

On to `COc1cc(C(=O)NC[C@](O)(c2cc3c(c(-c4ccc(F)cc4)n2)OC[C@]3(C)C(N)=O)C2CC2)cc2cc(Br)c(C)nc12` [Example 1117], for which the EC50 was under 200 nM.

With `COc1cc(C(=O)NC[C@](O)(c2cc3c(c(-c4ccc(F)cc4)n2)OC[C@]3(C)C(N)=O)C2(F)CC2)cc2cc(Br)c(C)nc12` [Example 1118], the concentration giving a half-maximal response (EC50) was under 200 nM.

As to `COc1cc(C(=O)NC[C@](O)(c2cc3c(c(-c4ccc(F)c(Cl)c4F)n2)OC[C@]3(C)C(N)=O)C2CC2)cc2cc(Br)c(C)nc12` [Example 1129], the EC50 is under 200 nM.

Consider `COc1cc(C(=O)NC[C@](O)(c2cc3c(c(-c4ccc5c(c4)OC(F)(F)O5)n2)OC[C@]3(C)C(N)=O)C2CC2)cc2cc(Br)c(C)nc12` [Example 1130], for which the EC50 was under 200 nM.

Consider `COc1cc(C(=O)NC[C@](O)(c2cc3c(c(-c4cc(Cl)c(F)cc4F)n2)OC[C@]3(C)C(N)=O)C2CC2)cc2sc(C)nc12` [Example 1131], for which the concentration for a half-maximal effect (EC50) is under 200 nM.

With `COc1cc(C(=O)NC[C@](O)(c2cc3c(c(-c4cc(Cl)c(F)cc4F)n2)OC[C@]3(C)C(N)=O)C2CC2)cc2sc(C3CC3)nc12` [Example 1132], the EC50 is under 200 nM.

`CCNC(=O)[C@@]1(C)COc2c1cc([C@@](O)(CNC(=O)c1cc(OC)c3nn(C4CC4)cc3c1)C(F)(F)F)nc2-c1ccc(F)cc1` [Example 1171]: the concentration for a half-maximal effect (EC50) is under 200 nM.

As to `COc1cc(C(=O)NC[C@](O)(c2cc3c(c(-c4ccc(F)cc4)n2)OC[C@]3(C)C(=O)NC2CC2)C(F)(F)F)cc2cn(C3CC3)nc12` [Example 1172], the EC50 is under 200 nM.

Regarding `COc1cc(C(=O)NC[C@](O)(c2cc3c(c(-c4ccc(F)cc4)n2)OC[C@]3(C)C(=O)NCC(F)(F)F)C(F)(F)F)cc2cn(C3CC3)nc12` [Example 1173], the EC50 was under 200 nM.

For the compound `COc1cc(C(=O)NC[C@](O)(c2cc3c(c(-c4ccc(F)cc4)n2)OC[C@]3(C)C(=O)NC2COC2)C(F)(F)F)cc2cn(C3CC3)nc12` [Example 1174], the EC50 is under 200 nM.

On to `COc1cc(C(=O)NC[C@](O)(c2cc3c(c(-c4ccc(F)cc4)n2)OC[C@]3(C)C(=O)NCCC(C)(C)O)C(F)(F)F)cc2cn(C3CC3)nc12` [Example 1175], for which the EC50 is under 200 nM.

Turning to `COc1cc(C(=O)NC[C@](O)(c2cc3c(c(-c4ccc(F)cc4)n2)OC[C@]3(C)C(=O)NC2(C)CC2)C(F)(F)F)cc2cn(C3CC3)nc12` [Example 1176], the concentration giving a half-maximal response (EC50) was under 200 nM.

Turning to `C[C@]1(C(N)=O)COc2c1cc([C@@](O)(CNC(=O)c1cc(OC3CC3)c3nn(C(F)F)cc3c1)C1CC1)nc2-c1ccc(F)c(F)c1Cl` [Example 1197], the EC50 is under 200 nM.

Take `C[C@]1(C(N)=O)COc2c1cc([C@@](O)(CNC(=O)c1cc(OC3CC3)c3nn(C(F)F)cc3c1)C1CC1)nc2-c1cccc(Cl)c1F` [Example 1198]: the EC50 was under 200 nM.

For `C[C@]1(C(N)=O)COc2c1cc([C@@](O)(CNC(=O)c1cc(OC3CC3)c3nn(C(F)F)cc3c1)C1CC1)nc2-c1cc(Cl)ccc1F` [Example 1199], the EC50 is under 200 nM.

For the compound `Cc1cnc2c(OC(F)F)cc(C(=O)NC[C@](O)(c3cc4c(c(-c5cc(Cl)ccc5F)n3)OC[C@]4(C)C(N)=O)C3CC3)cc2c1` [Example 1200], the concentration for a half-maximal effect (EC50) was under 200 nM.

As to `CNC(=O)[C@@]1(C)COc2c1cc([C@](O)(CNC(=O)c1cc(OC)c3nn(C4CC4)cc3c1)C(F)(F)F)nc2-c1ccc(F)c(F)c1Cl` [Example 1201], the EC50 was under 200 nM.

Regarding `CNC(=O)[C@@]1(C)COc2c1cc([C@@](O)(CNC(=O)c1cc(OC)c3nn(C4CC4)cc3c1)C(F)(F)F)nc2-c1ccc(F)c(F)c1Cl` [Example 1202], the concentration giving a half-maximal response (EC50) was under 200 nM.

Regarding `CNC(=O)[C@@]1(C)COc2c1cc([C@@](O)(CNC(=O)c1cc(OC)c3nn(C4CC4)cc3c1)C(F)(F)F)nc2-c1cc(Cl)c(F)cc1F` [Example 1203], the concentration giving a half-maximal response (EC50) is under 200 nM.

For the compound `COc1cc(C(=O)NC[C@](O)(c2cc3c(c(-c4ccc(F)c(F)c4Cl)n2)OC[C@]3(C)C(=O)NC2(C)CC2)C(F)(F)F)cc2cn(C3CC3)nc12` [Example 1204], the EC50 was under 200 nM.

For `COc1cc(C(=O)NC[C@](O)(c2cc3c(c(-c4cc(Cl)c(F)cc4F)n2)OC[C@]3(C)C(=O)NC2(C)CC2)C(F)(F)F)cc2cn(C3CC3)nc12` [Example 1205], the EC50 is under 200 nM.

On to `Cc1cnc2c(OC(F)F)cc(C(=O)NC[C@](O)(c3cc4c(c(-c5cccc(Br)c5F)n3)OC[C@]4(C)C(N)=O)C3CC3)cc2c1` [Example 1206], for which the EC50 was under 200 nM.

On to `Cc1cnc2c(OC(F)F)cc(C(=O)NC[C@](O)(c3cc4c(c(-c5ccc(F)c(Br)c5F)n3)OC[C@]4(C)C(N)=O)C3CC3)cc2c1` [Example 1207], for which the concentration for a half-maximal effect (EC50) was under 200 nM.

`Cc1cnc2c(OC(F)F)cc(C(=O)NC[C@](O)(c3cc4c(c(-c5ccc(F)c(C(F)(F)F)c5)n3)OC[C@]4(C)C(N)=O)C3CC3)cc2c1` [Example 1208]: the concentration giving a half-maximal response (EC50) is under 200 nM.

For `Cc1cnc2c(OC(F)F)cc(C(=O)NC[C@](O)(c3cc4c(c(-c5ccc(C(F)(F)F)cc5)n3)OC[C@]4(C)C(N)=O)C3CC3)cc2c1` [Example 1209], the 50% effective concentration (EC50) was under 200 nM.

Turning to `COc1cc(C(=O)NC[C@](O)(c2cc3c(c(-c4ccc5c(c4)OC(F)(F)O5)n2)OC[C@]3(C)C(N)=O)C2CC2)cc2cc(C(F)F)nnc12` [Example 1210], the EC50 is under 200 nM.

As for `Cc1cnc2c(OC(F)F)cc(C(=O)NC[C@](O)(c3cc4c(c(-c5cccc(F)c5Cl)n3)OC[C@]4(C)C(N)=O)C3CC3)cc2c1` [Example 1211], the half-maximal effective concentration (EC50) was under 200 nM.

For `C[C@]1(C(N)=O)COc2c1cc([C@@](O)(CNC(=O)c1cc(OC(F)F)c3nn(C4CC4)cc3c1)C1CC1)nc2-c1cc(Cl)c(F)cc1F` [Example 1212], the EC50 was under 200 nM.

`Cc1cnc2c(OC(F)F)cc(C(=O)NC[C@](O)(c3cc4c(c(-c5cc(F)c(F)c(Cl)c5)n3)OC[C@]4(C)C(N)=O)C3CC3)cc2c1` [Example 1213]: the concentration giving a half-maximal response (EC50) was under 200 nM.

For `Cc1cnc2c(OC(F)F)cc(C(=O)NC[C@](O)(c3cc4c(c(-c5ccc(Cl)c(F)c5F)n3)OC[C@]4(C)C(N)=O)C3CC3)cc2c1` [Example 1214], the concentration giving a half-maximal response (EC50) is under 200 nM.

On to `Cc1cnc2c(OC(F)F)cc(C(=O)NC[C@](O)(c3cc4c(c(-c5ccc(F)cc5Cl)n3)OC[C@]4(C)C(N)=O)C3CC3)cc2c1` [Example 1215], for which the EC50 is under 200 nM.

Take `[2H]c1nc2c(OC)cc(C(=O)NC[C@](O)(c3cc4c(c(-c5cc(Cl)c(F)cc5F)n3)OC[C@]4(C)C(N)=O)C3CC3)cc2cc1Br` [Example 1216]: the EC50 is under 200 nM.

Consider `COc1cc(C(=O)NC[C@](O)(c2nc(-c3ccc(F)c(Cl)c3F)c3c(c2Cl)[C@@](C)(C(N)=O)CO3)C2CC2)cc2cn(C3CC3)nc12` [Example 1217], for which the concentration for a half-maximal effect (EC50) was over 200 nM.
